In this assay the target is T1, hROMK (hKir1.1) (Homo sapiens, UniProt P48048).
T1 construct: expressed in transfected cells
T1 sequence (P48048 1-391): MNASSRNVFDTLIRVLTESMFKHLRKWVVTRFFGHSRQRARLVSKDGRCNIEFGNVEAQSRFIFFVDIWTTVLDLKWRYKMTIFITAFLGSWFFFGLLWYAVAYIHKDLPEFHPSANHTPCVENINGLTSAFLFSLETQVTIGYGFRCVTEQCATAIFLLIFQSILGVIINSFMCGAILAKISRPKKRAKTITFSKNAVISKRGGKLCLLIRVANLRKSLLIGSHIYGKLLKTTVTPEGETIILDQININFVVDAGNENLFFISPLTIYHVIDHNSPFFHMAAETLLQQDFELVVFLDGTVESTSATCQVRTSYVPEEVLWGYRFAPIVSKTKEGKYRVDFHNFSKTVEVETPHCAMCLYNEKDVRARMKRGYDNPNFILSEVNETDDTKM
Nature of the assay: Thallium Flux Assay (ROMK channel functional thallium flux assay). The following applies: HEK293 cells stably expressing hROMK (hKir1.1); FluxOR thallium flux, FLIPR-Tetra, 30 min compound incubation; read-out: ROMK TI IC50. Type of assay: cell-based. The procedure, abridged: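 HEK293 cells stably expressing hROMK (hKir1.1) loaded with FluxOR dye 90 min at ambient temperature, then compound 30 min before thallium/potassium stimulant (final 3 mM Tl/0.3 mM K). ROMK-sensitive flux defined by 3 μM standard inhibitor; data as % fluorescence change.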

SMILES strings stand for the structures.

On to `O=C1N(c2ccns2)CCC12CCN(C[C@H](O)c1ccc(-n3cnnn3)nc1)CC2` [Example 100, (R)-8-(2-(6-(1H-tetrazol-1-yl)pyridin-3-yl)-2-hydroxyethyl)-2-(isothiazol-5-yl)-2,8-diazaspiro[4.5]decan-1-one], for which the IC50 turned out to be 769 nM.

With `O=C1N(c2ccns2)CCC12CCN(C[C@@H](O)c1ccc(-n3cnnn3)nc1)CC2` [Example 101, (S)-8-(2-(6-(1H-tetrazol-1-yl)pyridin-3-yl)-2-hydroxyethyl)-2-(isothiazol-5-yl)-2,8-diazaspiro[4.5]decan-1-one], the IC50 stood at 203 nM. Then `Cc1c([C@@H](O)CN2CCC3(CC2)OCCN(c2ccc(=O)n(C)n2)C3=O)ccc2c1COC2=O` [Example 102, (R)-9-(2-hydroxy-2-(4-methyl-1-oxo-1,3-dihydroisobenzofuran-5-yl)ethyl)-4-(1-methyl-6-oxo-1,6-dihydropyridazin-3-yl)-1-oxa-4,9-diazaspiro[5.5]undecan-5-one], with 349 nM; and `Cc1c([C@@H](O)CN2CCC3(CC2)CCN(c2sncc2Br)C3=O)ccc2c1COC2=O` [Example 103, (R)-2-(4-bromoisothiazol-5-yl)-8-(2-hydroxy-2-(4-methyl-1-oxo-1,3-dihydroisobenzofuran-5-yl)ethyl)-2,8-diazaspiro[4.5]decan-1-one], with 61.4 nM. Turning to `Cc1cnsc1N1CCC2(CCN(C[C@H](O)c3ccc4c(c3C)COC4=O)CC2)C1=O` [Example 104, (R)-8-(2-hydroxy-2-(4-methyl-1-oxo-1,3-dihydroisobenzofuran-5-yl)ethyl)-2-(4-methylisothiazol-5-yl)-2,8-diazaspiro[4.5]decan-1-one], the IC50 amounted to 65.5 nM.

As to `Cc1c([C@@H](O)CN2CCC3(CC2)CCN(c2sncc2Cl)C3=O)ccc2c1COC2=O` [Example 105, (R)-2-(4-chloroisothiazol-5-yl)-8-(2-hydroxy-2-(4-methyl-1-oxo-1,3-dihydroisobenzofuran-5-yl)ethyl)-2,8-diazaspiro[4.5]decan-1-one], the IC50 is 54.2 nM. As to `Cc1c([C@@H](O)CN2CCC3(CC2)NCCN(c2ccc(=O)n(C)n2)C3=O)ccc2c1COC2=O` [Example 106, (R)-9-(2-hydroxy-2-(4-methyl-1-oxo-1,3-dihydroisobenzofuran-5-yl)ethyl)-4-(1-methyl-6-oxo-1,6-dihydropyridazin-3-yl)-1,4,9-triazaspiro[5.5]undecan-5-one], the IC50 was 361 nM. As to `Cc1c([C@@H](O)[C@H](C)N2CCC3(CCN(c4ccc(=O)n(C)n4)C3=O)CC2)ccc2c1COC2=O` [Example 107, 8-((1R,2S)-1-hydroxy-1-(4-methyl-1-oxo-1,3-dihydroisobenzofuran-5-yl)propan-2-yl)-2-(1-methyl-6-oxo-1,6-dihydropyridazin-3-yl)-2,8-diazaspiro[4.5]decan-1-one], the IC50 came to 42 nM. For the compound `Cc1c([C@@H](O)[C@@H](C)N2CCC3(CCN(c4ccc(=O)n(C)n4)C3=O)CC2)ccc2c1COC2=O` [Example 108, 8-((1R,2R)-1-hydroxy-1-(4-methyl-1-oxo-1,3-dihydroisobenzofuran-5-yl)propan-2-yl)-2-(1-methyl-6-oxo-1,6-dihydropyridazin-3-yl)-2,8-diazaspiro[4.5]decan-1-one], the IC50 turned out to be 56 nM. To `Cc1c(C(O)C(C)N2CCC3(CCN(c4ccc(=O)n(C)n4)C3=O)CC2)ccc2c1COC2=O` [Example 109, 8-41S,2S)-1-hydroxy-1-(4-methyl-1-oxo-1,3-dihydroisobenzofuran-5-yl)propan-2-yl)-2-(1-methyl-6-oxo-1,6-dihydropyridazin-3-yl)-2,8-diazaspiro[4.5]decan-1-one] belongs 20 nM; to `Cc1c([C@@H](O)CN2CCC3(CC2)CCN(c2cnn(C)c(=O)c2)CC3)ccc2c1COC2=O` [Example 110, (R)-5-(9-(2-hydroxy-2-(4-methyl-1-oxo-1,3-dihydroisobenzofuran-5-yl)ethyl)-3,9-diazaspiro[5.5]undecan-3-yl)-2-methylpyridazin-3(2H)-one], 279 nM; to `Cc1c([C@@H](O)CN2CCC3(CC2)CCN(c2cncc(F)c2)CC3)ccc2c1COC2=O` [Example 111, 9-(5-fluoropyridin-3-yl)-3-[(2R)-2-hydroxy-2-(4-methyl-1-oxo-1,3-dihydro-2-benzofuran-5-yl)ethyl]-9-aza-3-azoniaspiro[5.5]undecane], 185 nM. To `Cc1c([C@@H](O)CN2CCC3(CC2)CCN(c2ccccn2)CC3)ccc2c1COC2=O` [Example 112, 3-[(2R)-2-hydroxy-2-(4-methyl-1-oxo-1,3-dihydro-2-benzofuran-5-yl)ethyl]-9-pyridin-2-yl-9-aza-3-azoniaspiro[5.5]undecane] belongs 282 nM; to `Cc1c([C@@H](O)CN2CCC3(CC2)CCN(c2ccc(=O)n(C)n2)CC3)ccc2c1COC2=O` [Example 113, (R)-6-(9-(2-hydroxy-2-(4-methyl-1-oxo-1,3-dihydroisobenzofuran-5-yl)ethyl)-3,9-diazaspiro[5.5]undecan-3-yl)-2-methylpyridazin-3(2H)-one], 616 nM. Then `COc1ccnc(N2CCC3(CCN(C[C@H](O)c4ccc5c(c4C)COC5=O)CC3)CC2)n1` [Example 114, (R)-5-(1-hydroxy-2-(9-(4-methoxypyrimidin-2-yl)-3,9-diazaspiro[5.5]undecan-3-yl)ethyl)-4-methylisobenzofuran-1(3H)-one], with 384 nM; and `Cc1c([C@@H](O)CN2CCC3(CC2)CCN(c2ccc(C(F)(F)F)cn2)CC3)ccc2c1COC2=O` [Example 115, (R)-5-(1-hydroxy-2-(9-(5-(trifluoromethyl)pyridin-2-yl)-3,9-diazaspiro[5.5]undecan-3-yl)ethyl)-4-methylisobenzofuran-1(3H)-one], with 225 nM.

On to `Cc1c([C@@H](O)CN2CCC3(CC2)CCN(c2cnccn2)CC3)ccc2c1COC2=O` [Example 116, (R)-5-(1-hydroxy-2-(9-(pyrazin-2-yl)-3,9-diazaspiro[5.5]undecan-3-yl)ethyl)-4-methylisobenzofuran-1(3H)-one], for which the IC50 came to 6.28 nM. As to `Cc1c([C@@H](O)CN2CCC3(CC2)CCN(c2cc(F)ncn2)CC3)ccc2c1COC2=O` [Example 117, (R)-5-(2-(9-(6-fluoropyrimidin-4-yl)-3,9-diazaspiro[5.5]undecan-3-yl)-1-hydroxyethyl)-4-methylisobenzofuran-1(3H)-one], the IC50 was 403 nM.

For the compound `COc1cnc(N2CCC3(CCN(C[C@H](O)c4ccc5c(c4C)COC5=O)CC3)CC2)nc1` [Example 118, (R)-5-(1-hydroxy-2-(9-(5-methoxypyrimidin-2-yl)-3,9-diazaspiro[5.5]undecan-3-yl)ethyl)-4-methylisobenzofuran-1(3H)-one], the half-inhibitory concentration (IC50) was 125 nM. On to `Cc1c([C@@H](O)CN2CCC3(CC2)CCN(c2ncc(C(F)(F)F)cc2F)CC3)ccc2c1COC2=O` [Example 119, (R)-5-(2-(9-(3-fluoro-5-(trifluoromethyl)pyridin-2-yl)-3,9-diazaspiro[5.5]undecan-3-yl)-1-hydroxyethyl)-4-methylisobenzofuran-1(3H)-one], for which the IC50 was determined as 967 nM. For `Cc1c([C@@H](O)CN2CCC3(CC2)CCN(c2cnc(C(=O)O)cn2)CC3)ccc2c1COC2=O` [Example 120, (R)-5-(9-(2-hydroxy-2-(4-methyl-1-oxo-1,3-dihydroisobenzofuran-5-yl)ethyl)-3,9-diazaspiro[5.5]undecan-3-yl)pyrazine-2-carboxylic acid], the IC50 worked out at 236 nM.

Turning to `Cc1c([C@@H](O)CN2CCC3(CC2)CCN(c2cncc(C(=O)O)n2)CC3)ccc2c1COC2=O` [Example 121, (R)-6-(9-(2-hydroxy-2-(4-methyl-1-oxo-1,3-dihydroisobenzofuran-5-yl)ethyl)-3,9-diazaspiro[5.5]undecan-3-yl)pyrazine-2-carboxylic acid], the concentration for half-maximal inhibition (IC50) is 314 nM. On to `Cc1c([C@@H](O)CN2CCC3(CC2)CCN(c2nccnc2N)CC3)ccc2c1COC2=O` [Example 122, (R)-5-(2-(9-(3-aminopyrazin-2-yl)-3,9-diazaspiro[5.5]undecan-3-yl)-1-hydroxyethyl)-4-methylisobenzofuran-1(3H)-one], for which the IC50 amounted to 160 nM. Then `Cc1c([C@@H](O)CN2CCC3(CC2)CCN(c2ccc(Cl)nn2)CC3)ccc2c1COC2=O` [Example 123, (R)-5-(2-(9-(6-chloropyridazin-3-yl)-3,9-diazaspiro[5.5]undecan-3-yl)-1-hydroxyethyl)-4-methylisobenzofuran-1(3H)-one], with 8.45 nM; and `Cc1ccc(N2CCC3(CCN(C[C@H](O)c4ccc5c(c4C)COC5=O)CC3)CC2)nn1` [Example 124, (R)-5-(1-hydroxy-2-(9-(6-methylpyridazin-3-yl)-3,9-diazaspiro[5.5]undecan-3-yl)ethyl)-4-methylisobenzofuran-1(3H)-one], with 37.1 nM. As for `Cc1c([C@@H](O)CN2CCC3(CC2)CCN(c2cnc(C(F)(F)F)cn2)CC3)ccc2c1COC2=O` [Example 125, (R)-5-(1-hydroxy-2-(9-(5-(trifluoromethyl)pyrazin-2-yl)-3,9-diazaspiro[5.5]undecan-3-yl)ethyl)-4-methylisobenzofuran-1(3H)-one], the IC50 worked out at 492 nM. With `Cc1c([C@@H](O)CN2CCC3(CC2)CCN(c2cncc(Cl)n2)CC3)ccc2c1COC2=O` [Example 126, (R)-5-(2-(9-(6-chloropyrazin-2-yl)-3,9-diazaspiro[5.5]undecan-3-yl)-1-hydroxyethyl)-4-methylisobenzofuran-1(3H)-one], the IC50 is 281 nM.

The values are drawn from patent publication US20170275298A1, “INHIBITORS OF THE RENAL OUTER MEDULLARY POTASSIUM CHANNEL” (Merck Sharp & Dohme Corp., priority 2014, published 2017).
